Source: US7034056B2, “Aryl and biaryl compounds having MCH modulatory activity” (Pharmacopeia Drug Discovery, inc., priority 2001, dated 2006)
pKi: −log10 of the molar value.

Target: T1, hMCHR (MCH receptor) (Homo sapiens, UniProt Q99705)
T1 construct: (or internally produced); host or cells: CHO (Chinese hamster ovary) cells, membrane preparation
Assay: MCH Assay PCOP Protocol ([125I]-MCH SPA binding to hMCHR-CHO membranes);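 as to Activity (Ki range): A 0.4–50 nM B 51–500 nM C 501–2500 nM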
Conditions: [125I]-MCH SPA binding, hMCHR-CHO membranes; Ki class ranges; read-out: Activity (range of Ki)
Summary of the method: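 SPA binding with 10 μg hMCHR-CHO membranes and WGA-SPA beads in 25 mM HEPES pH 7.4, 10 mM NaCl, 10 mM MgCl2, 5 mM MnCl2, 0.1% BSA.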

T1 sequence (Q99705 whole entry): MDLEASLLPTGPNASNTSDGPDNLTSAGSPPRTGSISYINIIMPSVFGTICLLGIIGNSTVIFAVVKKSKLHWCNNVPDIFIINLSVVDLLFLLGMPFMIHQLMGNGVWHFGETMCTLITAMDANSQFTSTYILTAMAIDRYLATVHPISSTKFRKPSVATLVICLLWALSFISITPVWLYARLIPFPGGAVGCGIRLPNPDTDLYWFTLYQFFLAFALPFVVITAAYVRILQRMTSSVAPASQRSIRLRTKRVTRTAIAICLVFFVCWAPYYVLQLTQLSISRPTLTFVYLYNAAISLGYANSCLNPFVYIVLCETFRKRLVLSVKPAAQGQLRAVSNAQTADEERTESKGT

| Structure (SMILES) | pKi |
| --- | --- |
| CC1CCCN(CCC(CNC(=O)c2cc(C(F)(F)F)cc(C(F)(F)F)c2)c2ccc(Cl)c(Cl)c2)C1 (stereo not shown) [Example 417] | 5.60 to 6.30 |
| O=C(NCC(CCN1CCCC1CN1CCCC1)c1ccc(Cl)c(Cl)c1)c1cc(C(F)(F)F)cc(C(F)(F)F)c1 (stereo not shown) [Example 418] | 5.60 to 6.30 |
| CC1CCCCN1CCC(CNC(=O)c1cc(C(F)(F)F)cc(C(F)(F)F)c1)c1ccc(Cl)c(Cl)c1 (stereo not shown) [Example 419] | 5.60 to 6.30 |
| O=C(NCC(CCNC1c2ccccc2CC1O)c1ccc(Cl)c(Cl)c1)c1cc(C(F)(F)F)cc(C(F)(F)F)c1 (stereo not shown) [Example 420] | 5.60 to 6.30 |
| COc1cc(CN(C)CCC(CNC(=O)Nc2cc(C(F)(F)F)cc(C(F)(F)F)c2)c2ccc(Cl)c(Cl)c2)cc(OC)c1OC (stereo not shown) [Example 421] | 6.30 to 7.29 |
| O=C(NCC(CCN1CCCC1)c1ccc(Cl)c(Cl)c1)Nc1cc(C(F)(F)F)cc(C(F)(F)F)c1 (stereo not shown) [Example 422] | 6.30 to 7.29 |
| CCN1CCCC1CNCCC(CNC(=O)Nc1cc(C(F)(F)F)cc(C(F)(F)F)c1)c1ccc(Cl)c(Cl)c1 (stereo not shown) [Example 423] | 6.30 to 7.29 |
| CCCN(CC)CCC(CNC(=O)Nc1cc(C(F)(F)F)cc(C(F)(F)F)c1)c1ccc(Cl)c(Cl)c1 (stereo not shown) [Example 424] | 5.60 to 6.30 |
| CN(C)CCCNCCC(CNC(=O)Nc1cc(C(F)(F)F)cc(C(F)(F)F)c1)c1ccc(Cl)c(Cl)c1 (stereo not shown) [Example 425] | 5.60 to 6.30 |
| O=C(NCC(CCNCCc1ccc(O)cc1)c1ccc(Cl)c(Cl)c1)Nc1cc(C(F)(F)F)cc(C(F)(F)F)c1 (stereo not shown) [Example 426] | 5.60 to 6.30 |
| O=C(NCC(CCN1CCC(O)C1)c1ccc(Cl)c(Cl)c1)Nc1cc(C(F)(F)F)cc(C(F)(F)F)c1 (stereo not shown) [Example 427] | 5.60 to 6.30 |
| O=C(NCC(CCNCCN1CCOCC1)c1ccc(Cl)c(Cl)c1)Nc1cc(C(F)(F)F)cc(C(F)(F)F)c1 (stereo not shown) [Example 428] | 5.60 to 6.30 |
| O=C(NCC(CCN1CCC(CN2CCCCC2)CC1)c1ccc(Cl)c(Cl)c1)Nc1cc(C(F)(F)F)cc(C(F)(F)F)c1 (stereo not shown) [Example 429] | 5.60 to 6.30 |
| O=C(NCC(CCN1CCCC1CN1CCCC1)c1ccc(Cl)c(Cl)c1)Nc1cc(C(F)(F)F)cc(C(F)(F)F)c1 (stereo not shown) [Example 430] | 5.60 to 6.30 |
| O=C(NCC(CCNCC1CCCO1)c1ccc(Cl)c(Cl)c1)Nc1cc(C(F)(F)F)cc(C(F)(F)F)c1 (stereo not shown) [Example 431] | 5.60 to 6.30 |
| O=C(NCC(CCN1CCC(CO)C1)c1ccc(Cl)c(Cl)c1)Nc1cc(C(F)(F)F)cc(C(F)(F)F)c1 (stereo not shown) [Example 432] | 5.60 to 6.30 |
| CCN(CC)CCC(CNC(=O)Nc1cc(C(F)(F)F)cc(C(F)(F)F)c1)c1ccc(Cl)c(Cl)c1 (stereo not shown) [Example 433] | 5.60 to 6.30 |

Same assay, conditions: [125I]-MCH binding to hMCHR-CHO membranes; class symbols for ranges of Ki; read-out: Activity (Ki range)

| Structure (SMILES) | pKi |
| --- | --- |
| O=C(NCC(CCN1CCC(N2CCCCC2)CC1)c1ccc(Cl)c(Cl)c1)Nc1ccc(F)c(F)c1F (stereo not shown) [Example 363] | 5.60 to 6.30 |
| Cn1cnc(CCNCCC(CNC(=O)Nc2cc(C(F)(F)F)cc(C(F)(F)F)c2)c2ccc(Cl)c(Cl)c2)c1 (stereo not shown) [Example 367] | 5.60 to 6.30 |
| O=C(NCC(CCN1CCC(N2CCCCC2)CC1)c1ccc(F)c(F)c1)Nc1ccc(Cl)c(Cl)c1 (stereo not shown) [Example 369] | 5.60 to 6.30 |
| COc1cc(NC(=O)NCC(CCN2CCC(N3CCCCC3)CC2)c2ccc(Cl)c(Cl)c2)cc(OC)c1 (stereo not shown) [Example 370] | 5.60 to 6.30 |
| O=C(NCC(CCN1CCNCC1)c1ccc(Cl)c(Cl)c1)Nc1cc(C(F)(F)F)cc(C(F)(F)F)c1 (stereo not shown) [Example 371] | 5.60 to 6.30 |
| O=S(=O)(NCC(CCN1CCC(N2CCCCC2)CC1)c1ccc(Cl)c(Cl)c1)c1ccc(Cl)c(Cl)c1 (stereo not shown) [Example 372] | 5.60 to 6.30 |
| O=C(NCC(CCN1CCC(N2CCCCC2)CC1)c1ccc(Cl)c(Cl)c1)Nc1cc(C(F)(F)F)ccc1F (stereo not shown) [Example 373] | 5.60 to 6.30 |
| O=C(NCC(CCN1CCC(N2CCCCC2)CC1)c1ccc(Cl)c(Cl)c1)Nc1ccc(F)cc1 (stereo not shown) [Example 374] | 5.60 to 6.30 |
| N#Cc1cccc(NC(=O)NCC(CCN2CCC(N3CCCCC3)CC2)c2ccc(Cl)c(Cl)c2)c1 (stereo not shown) [Example 375] | 5.60 to 6.30 |
| O=S(=O)(NCC(CCN1CCC(N2CCCCC2)CC1)c1ccc(Cl)c(Cl)c1)c1cccc(C(F)(F)F)c1 (stereo not shown) [Example 376] | 5.60 to 6.30 |
| Cc1cc(C)cc(NC(=O)NCC(CCN2CCC(N3CCCCC3)CC2)c2ccc(Cl)c(Cl)c2)c1 (stereo not shown) [Example 377] | 5.60 to 6.30 |
| O=C(NCC(CCN1CCC(N2CCCCC2)CC1)c1ccc(F)c(F)c1)Nc1ccc(F)c(Cl)c1 (stereo not shown) [Example 378] | 5.60 to 6.30 |
| O=C(NCc1cc(C(F)(F)F)cc(C(F)(F)F)c1)C(CCNC1CCC1)c1ccc(Cl)c(Cl)c1 (stereo not shown) [Example 379] | 5.60 to 6.30 |
| O=C(NCc1cc(C(F)(F)F)cc(C(F)(F)F)c1)C(CCNCCN1CCCC1)c1ccc(Cl)c(Cl)c1 (stereo not shown) [Example 380] | 5.60 to 6.30 |
| O=C(NCc1cc(C(F)(F)F)cc(C(F)(F)F)c1)C(CCNCCc1c[nH]c2cc(F)ccc12)c1ccc(Cl)c(Cl)c1 (stereo not shown) [Example 381] | 5.60 to 6.30 |
| CC1CCN(CCC(C(=O)NCc2cc(C(F)(F)F)cc(C(F)(F)F)c2)c2ccc(Cl)c(Cl)c2)CC1 (stereo not shown) [Example 382] | 5.60 to 6.30 |
| O=C(NCc1cc(C(F)(F)F)cc(C(F)(F)F)c1)C(CCN1CCCCC1CO)c1ccc(Cl)c(Cl)c1 (stereo not shown) [Example 383] | 5.60 to 6.30 |
| CC(C)OCCCNCCC(C(=O)NCc1cc(C(F)(F)F)cc(C(F)(F)F)c1)c1ccc(Cl)c(Cl)c1 (stereo not shown) [Example 384] | 5.60 to 6.30 |
| O=C(NCc1cc(C(F)(F)F)cc(C(F)(F)F)c1)C(CCNCCc1c[nH]c2ccccc12)c1ccc(Cl)c(Cl)c1 (stereo not shown) [Example 385] | 5.60 to 6.30 |
| O=C(NCc1cc(C(F)(F)F)cc(C(F)(F)F)c1)C(CCNCCc1c[nH]c2ccc(F)cc12)c1ccc(Cl)c(Cl)c1 (stereo not shown) [Example 386] | 5.60 to 6.30 |
| O=C(NCc1cc(C(F)(F)F)cc(C(F)(F)F)c1)C(CCN1CCCC(CO)C1)c1ccc(Cl)c(Cl)c1 (stereo not shown) [Example 387] | 5.60 to 6.30 |
| O=C(NCc1cc(C(F)(F)F)cc(C(F)(F)F)c1)C(CCNCCCn1ccnc1)c1ccc(Cl)c(Cl)c1 (stereo not shown) [Example 388] | 5.60 to 6.30 |
| O=C(NCc1cc(C(F)(F)F)cc(C(F)(F)F)c1)C(CCN1CCC(O)CC1)c1ccc(Cl)c(Cl)c1 (stereo not shown) [Example 389] | 5.60 to 6.30 |
| O=C(NCc1cc(C(F)(F)F)cc(C(F)(F)F)c1)C(CCN1CCC(O)(c2ccc(Cl)cc2)CC1)c1ccc(Cl)c(Cl)c1 (stereo not shown) [Example 390] | 5.60 to 6.30 |
| Cc1cc(CNC(=O)C(CCN2CCCC(C)C2)c2ccc(Cl)c(Cl)c2)cc(C(F)(F)F)c1 (stereo not shown) [Example 391] | 5.60 to 6.30 |

| Structure (SMILES) | pKi |
| --- | --- |
| O=C(NCC(CCNCCc1ccc(O)cc1)c1ccc(Cl)c(Cl)c1)c1cc(C(F)(F)F)cc(C(F)(F)F)c1 (stereo not shown) [Example 392] | 6.30 to 7.29 |
| CN(CCC(CNC(=O)c1cc(C(F)(F)F)cc(C(F)(F)F)c1)c1ccc(Cl)c(Cl)c1)CC(=O)O (stereo not shown) [Example 393] | 5.60 to 6.30 |
| COc1ccc2c(CCNCCC(CNC(=O)c3cc(C(F)(F)F)cc(C(F)(F)F)c3)c3ccc(Cl)c(Cl)c3)c[nH]c2c1 (stereo not shown) [Example 394] | 5.60 to 6.30 |
| CCCN(CC)CCC(CNC(=O)c1cc(C(F)(F)F)cc(C(F)(F)F)c1)c1ccc(Cl)c(Cl)c1 (stereo not shown) [Example 395] | 5.60 to 6.30 |
| COc1ccc2[nH]cc(CCNCCC(CNC(=O)c3cc(C(F)(F)F)cc(C(F)(F)F)c3)c3ccc(Cl)c(Cl)c3)c2c1 (stereo not shown) [Example 396] | 5.60 to 6.30 |
| O=C(NCC(CCN1CCc2c([nH]c3ccccc23)C1)c1ccc(Cl)c(Cl)c1)c1cc(C(F)(F)F)cc(C(F)(F)F)c1 (stereo not shown) [Example 397] | 5.60 to 6.30 |
| O=C(NCC(CCNC1CCC1)c1ccc(Cl)c(Cl)c1)c1cc(C(F)(F)F)cc(C(F)(F)F)c1 (stereo not shown) [Example 398] | 5.60 to 6.30 |
| CC(Cc1c[nH]c2ccc(F)cc12)NCCC(CNC(=O)c1cc(C(F)(F)F)cc(C(F)(F)F)c1)c1ccc(Cl)c(Cl)c1 (stereo not shown) [Example 399] | 5.60 to 6.30 |
| O=C(NCC(CCNCCc1c[nH]c2ccccc12)c1ccc(Cl)c(Cl)c1)c1cc(C(F)(F)F)cc(C(F)(F)F)c1 (stereo not shown) [Example 400] | 5.60 to 6.30 |
| CCCCN(CCC(CNC(=O)c1cc(C(F)(F)F)cc(C(F)(F)F)c1)c1ccc(Cl)c(Cl)c1)C1CC1 (stereo not shown) [Example 401] | 5.60 to 6.30 |
| O=C(NCC(CCN1CCN(c2ccc(O)cc2)CC1)c1ccc(Cl)c(Cl)c1)c1cc(C(F)(F)F)cc(C(F)(F)F)c1 (stereo not shown) [Example 402] | 5.60 to 6.30 |
| O=C(NCC(CCN1CCCCC1)c1ccc(Cl)c(Cl)c1)c1cc(C(F)(F)F)cc(C(F)(F)F)c1 (stereo not shown) [Example 403] | 5.60 to 6.30 |
| O=C(NCC(CCNCC1CCCO1)c1ccc(Cl)c(Cl)c1)c1cc(C(F)(F)F)cc(C(F)(F)F)c1 (stereo not shown) [Example 404] | 5.60 to 6.30 |
| CC1CCN(CCC(CNC(=O)c2cc(C(F)(F)F)cc(C(F)(F)F)c2)c2ccc(Cl)c(Cl)c2)CC1 (stereo not shown) [Example 405] | 5.60 to 6.30 |
| O=C(NCC(CCN1CCCC1)c1ccc(Cl)c(Cl)c1)c1cc(C(F)(F)F)cc(C(F)(F)F)c1 (stereo not shown) [Example 406] | 5.60 to 6.30 |
| CCN1CCCC1CNCCC(CNC(=O)c1cc(C(F)(F)F)cc(C(F)(F)F)c1)c1ccc(Cl)c(Cl)c1 (stereo not shown) [Example 407] | 5.60 to 6.30 |
| CN(CCC(CNC(=O)c1cc(C(F)(F)F)cc(C(F)(F)F)c1)c1ccc(Cl)c(Cl)c1)C1CCCCC1 (stereo not shown) [Example 408] | 5.60 to 6.30 |
| CC(C)OCCCNCCC(CNC(=O)c1cc(C(F)(F)F)cc(C(F)(F)F)c1)c1ccc(Cl)c(Cl)c1 (stereo not shown) [Example 409] | 5.60 to 6.30 |
| Cc1ccc2[nH]cc(CCNCCC(CNC(=O)c3cc(C(F)(F)F)cc(C(F)(F)F)c3)c3ccc(Cl)c(Cl)c3)c2c1 (stereo not shown) [Example 410] | 5.60 to 6.30 |
| O=C(NCC(CCNCCN1CCCC1)c1ccc(Cl)c(Cl)c1)c1cc(C(F)(F)F)cc(C(F)(F)F)c1 (stereo not shown) [Example 411] | 5.60 to 6.30 |
| CCN(CC)CCC(CNC(=O)c1cc(C(F)(F)F)cc(C(F)(F)F)c1)c1ccc(Cl)c(Cl)c1 (stereo not shown) [Example 412] | 5.60 to 6.30 |
| CN1CCCC1CCNCCC(CNC(=O)c1cc(C(F)(F)F)cc(C(F)(F)F)c1)c1ccc(Cl)c(Cl)c1 (stereo not shown) [Example 413] | 5.60 to 6.30 |
| O=C(NCC(CCNCCCn1ccnc1)c1ccc(Cl)c(Cl)c1)c1cc(C(F)(F)F)cc(C(F)(F)F)c1 (stereo not shown) [Example 414] | 5.60 to 6.30 |
| O=C(NCC(CCNCCc1c[nH]c2cc(F)ccc12)c1ccc(Cl)c(Cl)c1)c1cc(C(F)(F)F)cc(C(F)(F)F)c1 (stereo not shown) [Example 415] | 5.60 to 6.30 |
| O=C(NCC(CCN1CCC(CNC2(CO)CCCC2)CC1)c1ccc(Cl)c(Cl)c1)c1cc(C(F)(F)F)cc(C(F)(F)F)c1 (stereo not shown) [Example 416] | 5.60 to 6.30 |
